Target: T1, cytochrome P450 2D6 (Homo sapiens, UniProt P10635)
T1 construct: were incubated with human liver microsomes (0.25 mg/mL protein and 0.075 μM P450); from tissue; host or cells: human liver microsomes
Assay: inhibition of cytochrome P450 2D6 in human liver microsomes (dextromethorphan to dextrorphan)
Type: biochemical
Conditions: human liver microsomes 0.25 mg/mL protein, 8 μM dextromethorphan, 1 mM NADPH, 37° C., 20 min; average IC50 with number of tests in parentheses
Description: Following the 20 min incubation, the reaction was quenched by addition of 200 μL acetonitrile containing 0.1 μM buspirone as an internal standard. The samples were then vortex mixed and centrifuged to pellet the protein. The supernantant was transferred, dried under nitrogen flow and reconstituted in mobile phase. A 10 uL aliquot was injected onto a gradient reversed phase HPLC system with a Phenomenex Luna C18 (50×4.6 mm) column. Dextrorphan, formed by the metabolism of dextromethorphan by CYP 2D6, was monitored using tandem MS/MS in the APCl mode with the MRM transition of m/z 258.3>156.6. Remaining-CYP2D6 activity (%) was determined for the samples relative to a vehicle control. The data were analyzed by non-linear regression according to % R=% Rmax[formula](1−(C/(C+IC50))) using WinNonLin (version 4.0.1), where % R is the % remaining CYP 2D6 activity relative to the vehicle control, C is the concentration of the compound of interest, and IC50 is the inhibitory concentration of the compound of interest giving 50% inhibition of maximal % remaining activity. The data are reported as IC50s (μM). If more than one assay was performed for a particular compound, the average IC50 is reported with the number of tests in parentheses.

T1 sequence (P10635 whole entry): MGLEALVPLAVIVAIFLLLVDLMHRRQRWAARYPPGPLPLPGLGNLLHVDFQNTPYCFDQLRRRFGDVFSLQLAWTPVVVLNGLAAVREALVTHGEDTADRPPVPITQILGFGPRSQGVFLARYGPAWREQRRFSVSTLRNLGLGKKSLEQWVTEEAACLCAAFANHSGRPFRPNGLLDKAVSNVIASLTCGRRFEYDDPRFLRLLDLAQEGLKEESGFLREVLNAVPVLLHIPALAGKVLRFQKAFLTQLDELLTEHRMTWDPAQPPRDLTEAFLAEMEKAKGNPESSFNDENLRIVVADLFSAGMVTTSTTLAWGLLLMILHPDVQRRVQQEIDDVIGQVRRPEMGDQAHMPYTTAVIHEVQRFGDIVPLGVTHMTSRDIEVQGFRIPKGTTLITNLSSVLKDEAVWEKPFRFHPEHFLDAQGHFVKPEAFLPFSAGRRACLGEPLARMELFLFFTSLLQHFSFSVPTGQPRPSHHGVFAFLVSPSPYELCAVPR

| SMILES | IC50 [nM] |
| --- | --- |
| Cc1cnc2nc(CC3=C(O)CC(CCc4ccc(C(C)(C)C#N)c(F)c4)(C4CCCC4)OC3=O)nn2c1 (racemic) [Compound 8, 2-[4-(2-{2-cyclopentyl-4-hydroxy-5-[(6-methyl[1,2,4]triazolo[1,5-a]pyrimidin-2-yl)methyl]-6-oxo-3,6-dihydro-2H-pyran-2-yl}ethyl)-2-fluorophenyl]-2-methylpropanenitrile] | < 74 |
| Cc1cnc2nc(CC3=C(O)CC(CCc4ccc(C(C)(C)C#N)c(F)c4)(C4CCCC4)OC3=O)nn2c1 (racemic) [Compound 9, 2-[4-(2-{2-cyclopentyl-4-hydroxy-5-[(6-methyl[1,2,4]triazolo[1,5-a]pyrimidin-2-yl)methyl]-6-oxo-3,6-dihydro-2H-pyran-2-yl}ethyl)-2-fluorophenyl]-2-methylpropanenitrile] | < 74 |
| CC(C)(C#N)c1ccc(CCC2(C3CCCC3)CC(O)=C(Cc3nc4ncccn4n3)C(=O)O2)cc1F (racemic) [Compound 18, 2-(4-{2-[2-cyclopentyl-4-hydroxy-6-oxo-5-([1,2,4]triazolo[1,5-a]pyrimidin-2-ylmethyl)-3,6-dihydro-2H-pyran-2-yl]ethyl}-2-fluorophenyl)-2-methylpropanenitrile] | 670 |
| N#CC1(c2ccc(CCC3(C4CCCC4)CC(O)=C(Cc4nc5ncccn5n4)C(=O)O3)cc2F)CC1 (racemic) [Compound 25, 1-(4-{2-[2-cyclopentyl-4-hydroxy-6-oxo-5-([1,2,4]triazolo[1,5-a]pyrimidin-2-ylmethyl)-3,6-dihydro-2H-pyran-2-yl]ethyl}-2-fluorophenyl)cyclopropanecarbonitrile] | 1100 |
| Cc1cnc2nc(CC3=C(O)CC(CCc4ccc(C5(C#N)CC5)c(F)c4)(C4CCCC4)OC3=O)nn2c1 (single isomer, unassigned) [Compound 23, 1-[4-(2-{2-cyclopentyl-4-hydroxy-5-[(6-methyl[1,2,4]triazolo[1,5-a]pyrimidin-2-yl)methyl]-6-oxo-3,6-dihydro-2H-pyran-2-yl}ethyl)-2-fluorophenyl]cyclopropanecarbonitrile] | 280 |
| Cc1cnc2nc(CC3=C(O)CC(CCc4ccc(C5(C#N)CC5)c(F)c4)(C4CCCC4)OC3=O)nn2c1 (single isomer, unassigned) [Compound 24, 1-[4-(2-{2-cyclopentyl-4-hydroxy-5-[(6-methyl[1,2,4]triazolo[1,5-a]pyrimidin-2-yl)methyl]-6-oxo-3,6-dihydro-2H-pyran-2-yl}ethyl)-2-fluorophenyl]cyclopropanecarbonitrile] | 1200 |

Second part, the molecule after the results:

| IC50 [nM] | SMILES |
| --- | --- |
| 410 | N#CC1(c2ccc(CCC3(C4CCCC4)CC(O)=C(Cc4nc5ncccn5n4)C(=O)O3)cc2F)CC1 (racemic) [Compound 26, 1-(4-{2-[2-cyclopentyl-4-hydroxy-6-oxo-5-([1,2,4]triazolo[1,5-a]pyrimidin-2-ylmethyl)-3,6-dihydro-2H-pyran-2-yl]ethyl}-2-fluorophenyl)cyclopropanecarbonitrile] |
| 300 | Cc1cc(C)n2nc(CC3=C(O)CC(CCc4ccc(C5(C#N)CC5)c(F)c4)(C4CCCC4)OC3=O)nc2n1 (racemic) [Compound 27, 1-[4-(2-{2-cyclopentyl-5-[(5,7-dimethyl[1,2,4]triazolo[1,5-a]pyrimidin-2-yl)methyl]-4-hydroxy-6-oxo-3,6-dihydro-2H-pyran-2-yl}ethyl)-2-fluorophenyl]cyclopropanecarbonitrile] |
| < 74 | CC(C)(C#N)c1c(F)cc(CCC2(C3CCCC3)CC(O)=C(Cc3nc4ncc(Cl)cn4n3)C(=O)O2)cc1F (racemic) [Compound 34] |
| ≤ 74 | CC(C)(C#N)c1c(F)cc(CCC2(C3CCCC3)CC(O)=C(Cc3nc4ncc(Cl)cn4n3)C(=O)O2)cc1F (racemic) [Compound 35, 2-[4-(2-{5-[(6-chloro[1,2,4]triazolo[1,5-a]pyrimidin-2-yl)methyl]-2-cyclopentyl-4-hydroxy-6-oxo-3,6-dihydro-2H-pyran-2-yl}ethyl)-2,6-difluorophenyl]-2-methylpropanenitrile] |

Source: patent publication US20040224960A1, “Pharmaceutical compositions and methods for their use” (Agouron Pharmaceuticals, Inc., priority 2003, published 2004)
